Test system: wheat NIM1 homologue mRNA transcripts
Experiment: RNA gel blot of wheat RNA probed with the KL1/KL2 PCR product of the wheat NIM1 homologue
Type: in vivo
Details: polyA+ RNA from leaf tissue of young wheat plants, BTH-treated for 24 h
Excerpt: The PCR product from wheat genomic DNA that is obtained with PCR primers KL1 and KL2 (SEQ ID NO:3 and SEQ ID NO:4, respectively) is used to probe gel blots of wheat RNA. […] The smaller transcript corresponds to the size detected in total RNA. […] The wheat “NIM loop”-described above is also used as a probe.

In the case of CSC(=O)c1cccc2nnsc12 [BTH, benzo(1,2,3)thiadiazole-7-carbothioic acid S-methyl ester], the “abundance of the two NIM1 homologue transcripts, BTH-treated versus untreated plants” value is reported as “equal abundance”.

Source: patent US20050132438A1, “Novel monocotylednous plant genes and uses thereof” (priority 2000, published 2005)
